Assay results reported in paper PMC3401096 (Molecular Biosystems, 2009).
Where a name gives a salt, the structure may show the parent alone. Read-outs that look alike come from different tables or passages of the source.

Tests used:
[1] = target: T1, JMJD2E (Homo sapiens, UniProt B2RXH2); assay: kinetic analysis of the mode of inhibition of JMJD2E with respect to 2OG; assay type: biochemical
T1 sequence (B2RXH2 1-337): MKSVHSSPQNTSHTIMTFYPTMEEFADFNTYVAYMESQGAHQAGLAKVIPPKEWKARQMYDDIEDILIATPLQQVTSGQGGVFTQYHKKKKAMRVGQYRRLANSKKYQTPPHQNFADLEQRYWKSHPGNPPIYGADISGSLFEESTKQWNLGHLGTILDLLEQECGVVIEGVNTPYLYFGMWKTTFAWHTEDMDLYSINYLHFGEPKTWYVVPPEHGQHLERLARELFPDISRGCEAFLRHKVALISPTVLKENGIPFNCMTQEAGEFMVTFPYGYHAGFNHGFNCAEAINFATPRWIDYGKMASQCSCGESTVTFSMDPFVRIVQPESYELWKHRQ

[2] = target: T1, JMJD2E; assay: miniaturized 1,536-well FDH-coupled JMJD2E qHTS assay; assay type: biochemical
[3] = target: T1, JMJD2E; assay: biochemical
[4] = target: T1, JMJD2E

IC50 [4] | αKi ([1]; uncompetitive with respect to 2OG) | Molecule | mode of inhibition of JMJD2E with respect to 2OG [1] | IC50 [2] | IC50 [3]
– | – | O=c1cc(-c2ccccc2)oc2cc(O)c(O)c(O)c12 [Baicalein] | noncompetitive | 4 µM | 4.5 µM
– | – | NCCc1ccc(O)c(O)c1 [Dopamine hydrochloride] | – | 7.1 µM | 2.2 µM
– | – | Oc1cc(O)c2c(c1)O[C@H](c1cc(O)c(O)c(O)c1)[C@H](O)C2 [Epigallocatechin] | – | 5 µM | –
– | – | Oc1ccc(C2CNCCc3c2cc(O)c(O)c3Cl)cc1 (stereo not shown) [Fenoldopam bromide] | – | 7.9 µM | 10.1 µM
6.1 µM | – | C[C@](N)(Cc1ccc(O)c(O)c1)C(=O)O [L-Methyldopa] | – | – | –
– | – | NCCc1cc(O)c(O)cc1O [Oxidopamine Hydrochloride] | – | 4 µM | 12.2 µM
– | – | CC1(C)CCC2=C(O1)c1ccccc1C(=O)C2=O [beta-Lapachone] | – | 3.6 µM | 8.4 µM
– | – | Oc1cc2c(cc1O)[C@@H]1c3ccc(O)c(O)c3OC[C@]1(O)C2 [hematoxylin] | – | 2 µM | 3.4 µM
7.5 µM | 1.98 ± 0.17 | S(−)-Carbidopa | uncompetitive | – | –

Molecule | IC50 [4] | αKi ([1]; uncompetitive with respect to 2OG) | mode of inhibition of JMJD2E with respect to 2OG [1] | IC50 [2] | IC50 [3]
O=C(O[C@@H]1Cc2c(O)cc(O)cc2O[C@@H]1c1cc(O)c(O)c(O)c1)c1cc(O)c(O)c(O)c1 [Epigallocatechin gallate] | 3 µM | – | – | – | –
